For 13 molecules, TGI results are on record in PubChem BioAssay (NCI).

Structures are written as SMILES.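 Dose response: 5 concentrations. Exposure: 48 h. Format: 96-well plates. Endpoint: linear interpolation; highest concentration if not reached. TGI: total growth inhibition.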 Where a SMILES comes first, the peptide text is derived from it. The star is where a group is joined. Boc = CC(C)(C)OC(=O)*

Test systems include OVCAR-5 ovarian; NCI/ADR-RES ovarian; SK-MEL-5 melanoma; EKVX NSCLC; CAKI-1 renal; NCI-H460 lung; MDA-MB-435; UACC-62 melanoma; HT29 colon; RPMI-8226 leukemia; SR leukemia; SN12C renal; BT-549 breast.
Holding throughout (assay): NCI anticancer screen, dose series, 48 h

Turning to `CC(C)(C)c1ccc2c(c1)CNCCNCc1cc(C(C)(C)C)ccc1OCC1(CO2)COc2ccc(C(C)(C)C)cc2CNCCNCc2cc(C(C)(C)C)ccc2OC1`, the TGI with OVCAR-5 ovarian is 3.06 µM; with NCI/ADR-RES ovarian it was 3.07 µM; in the assay with SK-MEL-5 melanoma it was 3.37 µM; in the assay on EKVX NSCLC it was 2.42 µM; in the assay with CAKI-1 renal it was 2.74 µM; in the assay on NCI-H460 lung it was 0.609 µM. The TGI in the assay with MDA-MB-435 was determined as 1 µM; in the assay on UACC-62 melanoma it was 2.76 µM; with HT29 colon, 0.472 µM; in the assay with RPMI-8226 leukemia, 4.2 µM.

As for `O=c1[nH]n2c(=O)cc[nH]c2c1-c1nnns1`, the TGI in the assay with OVCAR-5 ovarian, in the assay with SK-MEL-5 melanoma, with EKVX NSCLC, in the assay on CAKI-1 renal, in the assay on NCI-H460 lung and in the assay on SR leukemia was above 100 µM each time. Also, the TGI in the assay with SN12C renal, in the assay with HT29 colon and in the assay on RPMI-8226 leukemia was above 100 µM each time.

With `COc1ccc(C2Oc3c(cc(O)c(OC)c3C)[C@@H]2C)cc1OC` (stereo not given in full), the TGI with OVCAR-5 ovarian, in the assay on SK-MEL-5 melanoma, in the assay on EKVX NSCLC, in the assay on CAKI-1 renal, in the assay on NCI-H460 lung and with UACC-62 melanoma was above 100 µM throughout. Also, the TGI with HT29 colon and with RPMI-8226 leukemia was above 100 µM in each case.

For `CC(C)(C)C1=C(Br)C(Br)(C(C)(C)C)OP1(=O)c1ccccc1` (stereo not given), the TGI in the assay on OVCAR-5 ovarian, in the assay with NCI/ADR-RES ovarian, in the assay with SK-MEL-5 melanoma, in the assay on EKVX NSCLC, in the assay on CAKI-1 renal and with NCI-H460 lung was above 100 µM in each case. Besides, the TGI in the assay on MDA-MB-435, with UACC-62 melanoma, in the assay on SR leukemia, in the assay with SN12C renal and in the assay on HT29 colon was above 100 µM each time.

For `CN1C(=O)N(c2ccccc2)C2(CCN(CC3COc4ccccc4O3)CC2)C1=O` (stereo not given), the TGI in the assay on OVCAR-5 ovarian, in the assay on NCI/ADR-RES ovarian, with SK-MEL-5 melanoma, with EKVX NSCLC, in the assay on CAKI-1 renal and in the assay with NCI-H460 lung was above 100 µM throughout. Moreover, the TGI in the assay on MDA-MB-435, with UACC-62 melanoma, with SR leukemia, with SN12C renal, in the assay with HT29 colon and with RPMI-8226 leukemia was above 100 µM throughout.

Take `COc1cc(-c2cc(=O)c3cc4c(cc3[nH]2)OCO4)cc(OC)c1O`: the TGI in the assay with OVCAR-5 ovarian, in the assay on NCI/ADR-RES ovarian, with SK-MEL-5 melanoma, in the assay with EKVX NSCLC, in the assay on CAKI-1 renal and in the assay with NCI-H460 lung was above 10 µM each time. For the same molecule, the TGI in the assay with MDA-MB-435, with UACC-62 melanoma, in the assay on SR leukemia, in the assay on SN12C renal, with HT29 colon and in the assay on RPMI-8226 leukemia was above 10 µM in each case.

Regarding `Cn1cc2ccccc2c1-c1nc(N)nc(F)n1`, the TGI in the assay with OVCAR-5 ovarian, with SK-MEL-5 melanoma, in the assay on EKVX NSCLC, in the assay with CAKI-1 renal, with NCI-H460 lung and in the assay on SR leukemia was above 100 µM throughout. Further, the TGI in the assay on SN12C renal, with HT29 colon and in the assay with RPMI-8226 leukemia was above 100 µM each time.

In the case of `COC(=O)CNC(=O)C(Cc1ccccc1)NC(=O)C(CCSC)NC(=O)C(Cc1ccc(O)cc1)NC(=O)OC(C)(C)C` (stereo not given) (Boc-YMFG-OMe; configuration not given here), the TGI in the assay on OVCAR-5 ovarian, in the assay with NCI/ADR-RES ovarian, with SK-MEL-5 melanoma, in the assay with CAKI-1 renal, in the assay on NCI-H460 lung and in the assay on BT-549 breast was above 100 µM throughout. Besides, the TGI with MDA-MB-435 is above 100 µM; in the assay with UACC-62 melanoma, above 100 µM; in the assay with SN12C renal, above 100 µM; in the assay with HT29 colon, above 100 µM; in the assay with RPMI-8226 leukemia, 50.2 µM.

For `COC(=O)CC(C(C(=O)OC)C(=O)OC)N1C(=O)OCC1c1ccccc1` (stereo not given), the TGI in the assay with OVCAR-5 ovarian, in the assay on SK-MEL-5 melanoma, in the assay on EKVX NSCLC, in the assay with CAKI-1 renal, in the assay on NCI-H460 lung and in the assay on UACC-62 melanoma was above 100 µM each time. In addition, the TGI in the assay with SN12C renal, in the assay on HT29 colon and in the assay with RPMI-8226 leukemia was above 100 µM throughout.

Regarding `CC1=C2C(=O)NN=C2CCN1c1ccc(Br)cc1`, the TGI in the assay on OVCAR-5 ovarian, in the assay with NCI/ADR-RES ovarian, in the assay with SK-MEL-5 melanoma, in the assay on EKVX NSCLC, in the assay with CAKI-1 renal and with NCI-H460 lung was above 100 µM each time. Also, the TGI was 75.1 µM with BT-549 breast; above 100 µM with MDA-MB-435; above 100 µM with UACC-62 melanoma; above 100 µM with SN12C renal; above 100 µM in the assay on HT29 colon.

For the molecule `Cc1cc(N(CCC#N)CCC#N)ccc1/C=N/NC(=O)c1cc(Cl)ccc1O`, the TGI in the assay on OVCAR-5 ovarian, with NCI/ADR-RES ovarian, in the assay with SK-MEL-5 melanoma, in the assay on EKVX NSCLC, with CAKI-1 renal and in the assay on NCI-H460 lung was above 100 µM in each case. The TGI in the assay with MDA-MB-435, in the assay with UACC-62 melanoma, with SR leukemia, in the assay on SN12C renal and in the assay with HT29 colon was above 100 µM in each case.

Take `O=C(/C=C/c1ccc(O)c([N+](=O)[O-])c1)CC(=O)/C=C/c1ccc(O)c([N+](=O)[O-])c1`: the TGI in the assay on OVCAR-5 ovarian, in the assay with NCI/ADR-RES ovarian, in the assay with SK-MEL-5 melanoma, in the assay with EKVX NSCLC, with NCI-H460 lung and in the assay with BT-549 breast was above 100 µM in each case. Further, the TGI with MDA-MB-435 is above 100 µM; in the assay on UACC-62 melanoma, above 100 µM; with SN12C renal, above 100 µM; with HT29 colon it was above 100 µM; in the assay with RPMI-8226 leukemia, 34.5 µM.

In the case of `CCN1CC2=C(NC(=S)NC2c2ccc(Cl)cc2)/C(=C/c2ccc(Cl)cc2)C1` (stereo not given), the TGI with OVCAR-5 ovarian was above 100 µM; with NCI/ADR-RES ovarian, above 100 µM; in the assay with SK-MEL-5 melanoma, above 100 µM; in the assay on EKVX NSCLC it was above 100 µM; in the assay with CAKI-1 renal it was above 100 µM; with NCI-H460 lung, 45.8 µM. Moreover, the TGI with BT-549 breast was above 100 µM; in the assay with MDA-MB-435, above 100 µM; with UACC-62 melanoma, above 100 µM; in the assay with HT29 colon, above 100 µM; in the assay with RPMI-8226 leukemia, 90.9 µM.
